Measured values taken from PubChem BioAssay AID588764 (Broad Institute, 2011).
Records with an inconclusive call do not appear. Activity calls are given as the source filed them. The rule behind the calls is not given here.

Target: Histone acetyltransferase RTT109 (Candida albicans (strain SC5314 / ATCC MYA-2876)) (UniProt Q5AAJ8)
Test: C. albicans Rtt109 HAT inhibition curves – biochemical, cherry-picked hits, plate reader, dose response (AID 588764)
Settings: Rtt109/Vps75 HAT activity; for activity change, negative = inhibition: at 19.5 µM (top of the series)

Histone acetyltransferase RTT109 (Candida albicans (strain SC5314 / ATCC MYA-2876)), sequence (Q5AAJ8 whole entry, looked up): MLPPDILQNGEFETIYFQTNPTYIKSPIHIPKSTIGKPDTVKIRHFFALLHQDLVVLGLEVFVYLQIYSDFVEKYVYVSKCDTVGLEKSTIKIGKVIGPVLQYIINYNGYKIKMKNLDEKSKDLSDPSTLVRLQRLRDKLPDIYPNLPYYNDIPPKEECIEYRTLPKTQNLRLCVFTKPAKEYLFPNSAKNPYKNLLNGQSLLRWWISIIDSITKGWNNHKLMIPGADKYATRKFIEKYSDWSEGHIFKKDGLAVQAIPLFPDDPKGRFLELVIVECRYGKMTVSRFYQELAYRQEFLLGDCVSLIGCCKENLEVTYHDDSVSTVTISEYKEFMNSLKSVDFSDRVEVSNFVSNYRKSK

Structure (SMILES)	AC50	activity change, negative = inhibition
O=[N+]([O-])c1ccc(Sc2cccc[n+]2[O-])c2nonc12	11.6 µM	
CSc1c(SCc2ccccc2)cnn(-c2ccccc2)c1=O		inactive
CCCCn1c(N)c(N(Cc2ccccc2OC)C(=O)c2sccc2C)c(=O)[nH]c1=O		inactive
NNc1n[nH]c(=S)n1N		inactive
Nc1c(C(=O)c2ccccc2)oc2ccc([N+](=O)[O-])cc12		inactive
O=C(C/C=N/OCc1ccc(Cl)cc1Cl)c1ccccc1		inactive
COc1cc(NC(=O)COc2c(C)cc(C)cc2[N+](=O)[O-])c(OC)cc1Cl		inactive
Cc1ccc(NC(=O)OCc2cc(-c3ccccc3)on2)cc1		inactive
CCOc1cc(S(=O)(=O)N2CCC(Cc3ccccc3)CC2)c(OCC)cc1-n1cnnn1		inactive
O=S(=O)(Nc1cc(Sc2ncn[nH]2)c(O)c2ccccc12)c1ccccc1	4.1 µM	
O=C(Nc1ccc2oc(-c3ccncc3)nc2c1)c1ccc2c(c1)OCCO2		inactive
Cc1ccc(C2=NC(C)(C)N=C2SCC(=O)Nc2ccc(Cl)cc2)cc1		inactive
COc1ccccc1C(=O)CSc1nccn1C		inactive
Oc1cc(O)c(CN2CCOCC2)cc1CN1CCOCC1	19.5 µM	
CN(C)C(=S)SSC(=S)N(C)C	3.4 µM	
Cc1c(C(=O)Nc2ccc(S(=O)(=O)N(C)C3CCN(C)CC3)cc2)oc2c(Cl)cccc12		inactive
CCCC[n+]1c(C)sc2cc(OC)ccc21		inactive
Nc1ccc(Nc2ccncc2[N+](=O)[O-])cc1		inactive
N#Cc1c(Nc2ccccc2)s[nH]c1=O	5.84 µM	
Cc1cccc(NC(=O)CCN2C(=O)c3ccccc3C2=O)c1		inactive
CCc1cccc(NC(=O)C2CCCN(c3ncnc4c3nc3n4CCCCC3)C2)c1 (stereo not drawn)		inactive
N#C/C(=C\c1ccncc1)c1nc2c(s1)CCCC2		inactive
CC1Cc2ccccc2N1C(=O)c1ccc(N2CCCC2)c([N+](=O)[O-])c1 (stereo not drawn)		inactive
COc1cc(C2NC(=O)C(C#N)=C(S)N2c2ccccc2)ccc1OC(C)C (stereo not drawn)		inactive
CCN(CC)C(=S)SSC(=S)N(CC)CC	3.26 µM	
CC(C(=O)NC1C=CS(=O)(=O)C1)N1C(=O)/C(=C/c2ccc(Cl)cc2)SC1=S (stereo not drawn)		inactive

Structure (SMILES)	AC50	activity change, negative = inhibition
CN1CCc2cccc3c2[C@H]1Cc1ccc(O)c(O)c1-3	18.4 µM	
O=C1CCC(=O)N1c1ccc(-c2nc3ccccc3s2)cc1		inactive
COc1cc(OC)c(NC(=O)CN(C)S(=O)(=O)c2ccc(-c3ccc(=O)[nH]n3)s2)cc1Cl		inactive
CC(=O)N(c1ccc2oc(=O)sc2c1)S(=O)(=O)c1cccc2cccnc12		inactive
COc1ccccc1NC(=O)CSC(N)=O		inactive
O=C(CNC(=O)c1cccc(Br)c1)N/N=C/c1cccs1		inactive
COc1cc(NC(=O)C(Cc2ccccc2)n2cccc2)cc(OC)c1 (stereo not drawn)		inactive
CCCCCCCCCCn1c2c(c(=N)c3c1CCC3)CCC2		inactive
O=c1[nH]c2ccccc2n2c(-c3ccccc3)nnc12	1.98 µM	
CCOC(=O)c1c(C)oc2c(CC(=O)c3ccccc3)c(Cl)c(O)c(O)c12		inactive
CCn1c(CCn2c3ccccc3c3ccccc32)n[nH]c1=S		inactive
Cc1cc(C)cc(NC(=O)NC(C)C2CCCO2)c1 (stereo not drawn)		inactive
O=C1CN(C(=O)/C=C/c2ccc(Cl)cc2)c2ccccc2N1		inactive
CCc1ccc(C(=O)CSc2ncn[nH]2)cc1	4.11 µM	
CC(=O)N1CCN(c2ncnc3ccccc23)CC1		inactive
CS(=O)(=O)c1ncc(Cl)c(C(=O)Nc2ccc(N3CCOCC3)cc2)n1	8.27 µM	
Fc1ccccc1C1CC(c2ccco2)=Nc2ccccc2S1 (stereo not drawn)		inactive
CC#CCN(CC#CC)S(=O)(=O)c1ccc(-n2cnnn2)c(OC)c1		inactive
O=C(COC(=O)c1cnccn1)c1ccc([N+](=O)[O-])cc1	11.4 µM	
CCOC(=O)N1CCN(Cc2c(O)ccc3ccccc23)CC1	18.8 µM	
Cc1nn(C2CCS(=O)(=O)C2)c2nc(C3CC3)cc(C(=O)Nc3ccc(C(N)=O)cc3)c12 (stereo not drawn)		inactive
Cc1cc(C)nc(N2CCC(C(=O)Nc3ccc4c(c3)OCCO4)CC2)n1		inactive
O=C(Nc1ccc(F)cc1)c1c(O)c2c(n(Cc3ccccc3)c1=O)CCCC2		inactive
Cc1ccc(/C=C/C(=O)NCc2ccc(S(N)(=O)=O)cc2)o1	10.7 µM	
CC(/C=C1\SC(=S)N(C(C(=O)O)c2ccccc2)C1=O)=C\c1ccccc1 (stereo not drawn)		inactive
CC[C@@H](C)[C@H](NC(=O)OC(C)(C)C)c1nnc(S(=O)(=O)Cc2cc(C)ccc2C)o1	12.6 µM	

Structure (SMILES)	AC50	activity change, negative = inhibition
CCn1c(SCC(=O)Nc2cc(OC)c(OC)c(OC)c2)nnc1-c1cccs1		inactive
CC1CCN(c2nc(CN3CCCCC3)nc3scc(-c4ccccc4)c23)CC1		inactive
Cc1cc(OCc2ccc(C(=O)NN=C3CCCC3)cc2)ccc1Cl		inactive
Cc1cc(C)c2c(=O)n(CC(=O)Nc3cccc(Cl)c3C)sc2n1	1.98 µM	
O=S(=O)(Nc1ccc(O)c(Sc2nc3ccccc3s2)c1)c1cccc2ccccc12		inactive
COc1cccc(/C=C2/Sc3ccc(C(=O)NCCN4CCCC4)cc3NC2=O)c1		inactive
CC(=O)Nc1ccc(NC(=O)c2nc(S(=O)(=O)Cc3ccccc3)ncc2Cl)cc1	6.3 µM	
COc1ccc(NC(=O)CSc2nnc(-c3ccccc3)n2N)cc1		inactive
CCCCS(=O)(=O)/C=C\C=C/S(=O)(=O)CCCC	7.19 µM	
COCCNS(=O)(=O)c1ccc2c(c1)C(=NO)c1cc(S(=O)(=O)NCCOC)ccc1-2		inactive
CN(C(=O)CCc1nc(-c2ccccc2F)no1)c1ccccc1		inactive
CC1(C)CC2(CC(c3ccccc3F)c3ccc(O)c(O)c3O2)NC(=S)N1 (stereo not drawn)	19.7 µM	
O=C(NC(=S)Nc1ccc(Oc2ccccc2)cc1)c1ccc(Cl)cc1		inactive
Cc1nonc1OCCn1c([N+](=O)[O-])cnc1C		inactive
O=C(NCc1ccc(Cl)cc1)c1ccccc1CCc1ccccc1		inactive
Cc1ccc(S(=O)(=O)CCC(=O)c2cccc([N+](=O)[O-])c2)cc1	8.29 µM	
COc1ccc2[nH]c(=O)c(CN(Cc3nnnn3Cc3ccccc3)CC3CCCO3)cc2c1 (stereo not drawn)		inactive
Cc1ccc2nc(N(CCCN(C)C)C(=O)c3sc4ccccc4c3Cl)sc2c1		inactive
CN(C)c1ccc(/C=C/c2ccc3c4ccccc4ccc3[n+]2-c2ccccc2)cc1		inactive
COc1cccc2c1Oc1ncccc1N(C(=O)CCC(=O)NCc1ccc(F)cc1)C2		inactive
COC(=O)c1ccc(N2C(=O)CC(SCC(=O)Nc3ccc(OC)cc3)C2=O)cc1 (stereo not drawn)		inactive
Cc1cc(Cl)c(S(=O)(=O)N2CCCC2)cc1OCC(N)=O		inactive
C#CCOCCOCCOCCNc1nc(N2CCN(C(=O)C([C@@H](C)O)n3cc([C@@H](N)CCCCN)nn3)CC2)nc(N2CCN(C(=O)C([C@@H](C)O)n3cc([C@@H](N)CCCCN)nn3)CC2)n1 (stereo partly drawn)		inactive
Cc1ccccc1/C=C/C(=O)NCC(=O)N1CCC(N(C)C2CCCCC2C)CC1 (stereo not drawn)		inactive
O=C(NCc1ccncc1)C(=O)NCC(c1ccco1)N1CCN(c2ccc(F)cc2)CC1 (stereo not drawn)		inactive
O=C(NCc1ccc2c(c1)OCO2)c1ccc(CS(=O)Cc2cccc(Cl)c2)o1 (stereo not drawn)		inactive
